Results: ChEMBL document CHEMBL4680222, “Sensitive fluorogenic substrates for sirtuin deacylase inhibitor discovery” (Eur J Med Chem, 2020)
Each block holds one compound with its values, some of them ahead of it.

Columns and labels:
[1] = target: T1, NAD-dependent protein deacylase sirtuin-5, mitochondrial (Homo sapiens, UniProt Q9NXA8); test: Inhibition of human N-terminal His-tagged SIRT5 (34 to 302 residues) expressed in Escherichia coli using Ac-His-Phe-Ser-Lys(Su)-AMC as substrate preincubated for 10 mins followed by substrate addition and measured after 30 mins in presence of NAD+ by fluorescence assay
T1 sequence (Q9NXA8 whole entry, the tested form may be a part): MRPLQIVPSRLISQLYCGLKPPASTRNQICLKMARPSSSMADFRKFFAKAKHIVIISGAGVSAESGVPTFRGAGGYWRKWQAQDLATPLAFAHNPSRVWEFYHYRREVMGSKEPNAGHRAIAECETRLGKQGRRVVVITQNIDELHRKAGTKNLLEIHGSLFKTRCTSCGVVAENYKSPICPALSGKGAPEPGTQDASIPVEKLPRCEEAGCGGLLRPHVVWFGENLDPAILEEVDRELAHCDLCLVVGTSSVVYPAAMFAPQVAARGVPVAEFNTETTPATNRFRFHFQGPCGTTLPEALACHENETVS

[2] = target: T1, NAD-dependent protein deacylase sirtuin-5, mitochondrial; test: Inhibition of human N-terminal His-tagged SIRT5 (34 to 302 residues) expressed in Escherichia coli using Ac-Tyr-Lys-Leu-Lys(Ac)-AMC as substrate preincubated for 10 mins followed by substrate addition and measured after 30 mins in presence of NAD+ by fluorescence assay
[3] = target: T1, NAD-dependent protein deacylase sirtuin-5, mitochondrial; test: Inhibition of human N-terminal His-tagged SIRT5 (34 to 302 residues) expressed in Escherichia coli using Ac-Leu-Gly-Ser-Lys(Su)-AMC as substrate preincubated for 10 mins followed by substrate addition and measured after 30 mins in presence of NAD+ by fluorescence assay
[4] = target: T2, NAD-dependent protein deacetylase sirtuin-1 (Homo sapiens, UniProt Q96EB6); test: Inhibition of human N-terminal His-tagged SIRT1 (183 to 664 residues) expressed in Escherichia coli using Ac-Tyr-Lys-Leu-Lys(Ac)-AMC as substrate preincubated for 10 mins followed by substrate addition and measured after 30 mins in presence of NAD+ by fluorescence assay
T2 sequence (Q96EB6 whole entry): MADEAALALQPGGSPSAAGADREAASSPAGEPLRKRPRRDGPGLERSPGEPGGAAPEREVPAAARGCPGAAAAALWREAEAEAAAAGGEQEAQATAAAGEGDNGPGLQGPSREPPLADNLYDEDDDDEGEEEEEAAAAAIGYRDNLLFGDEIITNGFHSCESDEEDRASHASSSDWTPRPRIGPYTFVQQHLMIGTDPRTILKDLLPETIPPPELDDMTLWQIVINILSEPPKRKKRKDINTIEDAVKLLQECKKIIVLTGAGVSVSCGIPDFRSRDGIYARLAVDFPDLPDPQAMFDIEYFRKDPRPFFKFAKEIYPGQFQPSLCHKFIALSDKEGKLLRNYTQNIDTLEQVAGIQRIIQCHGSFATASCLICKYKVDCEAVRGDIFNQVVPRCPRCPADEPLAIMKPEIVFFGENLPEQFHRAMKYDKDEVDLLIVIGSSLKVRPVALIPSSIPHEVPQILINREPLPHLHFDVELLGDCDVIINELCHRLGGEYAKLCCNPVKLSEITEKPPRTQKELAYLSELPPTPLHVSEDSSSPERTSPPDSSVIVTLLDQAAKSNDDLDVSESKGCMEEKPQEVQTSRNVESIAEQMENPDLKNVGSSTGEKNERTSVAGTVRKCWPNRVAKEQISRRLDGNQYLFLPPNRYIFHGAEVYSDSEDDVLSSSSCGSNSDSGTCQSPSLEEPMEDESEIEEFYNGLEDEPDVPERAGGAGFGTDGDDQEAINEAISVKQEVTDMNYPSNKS

[5] = target: T2, NAD-dependent protein deacetylase sirtuin-1; test: Inhibition of human N-terminal His-tagged SIRT1 (183 to 664 residues) expressed in Escherichia coli using Ac-Arg-Leu-Ile-Lys(Ac)-AMC as substrate preincubated for 10 mins followed by substrate addition and measured after 30 mins in presence of NAD+ by fluorescence assay
[6] = target: T3, NAD-dependent protein deacetylase sirtuin-2 (Homo sapiens, UniProt Q8IXJ6); test: Inhibition of human N-terminal His-tagged SIRT2 (56 to 356 residues) expressed in Escherichia coli using Ac-Arg-Leu-Ile-Lys(Ac)-AMC as substrate preincubated for 10 mins followed by substrate addition and measured after 30 mins in presence of NAD+ by fluorescence assay
T3 sequence (Q8IXJ6 whole entry): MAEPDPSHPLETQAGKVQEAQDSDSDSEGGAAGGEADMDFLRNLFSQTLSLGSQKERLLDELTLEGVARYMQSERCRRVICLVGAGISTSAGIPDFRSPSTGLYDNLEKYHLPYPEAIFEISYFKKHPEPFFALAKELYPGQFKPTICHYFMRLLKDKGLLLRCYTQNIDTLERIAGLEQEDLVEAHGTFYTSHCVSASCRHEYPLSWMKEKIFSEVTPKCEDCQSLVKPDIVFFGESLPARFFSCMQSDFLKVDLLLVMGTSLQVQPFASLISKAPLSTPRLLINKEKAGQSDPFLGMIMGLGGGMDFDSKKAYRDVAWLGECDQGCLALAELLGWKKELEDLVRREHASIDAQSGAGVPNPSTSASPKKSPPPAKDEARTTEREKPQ

[7] = target: T3, NAD-dependent protein deacetylase sirtuin-2; test: Inhibition of human N-terminal His-tagged SIRT2 (56 to 356 residues) expressed in Escherichia coli using Ac-Ser-Ser-Ile-Lys(De)-AMC as substrate preincubated for 10 mins followed by substrate addition and measured after 30 mins in presence of NAD+ by fluorescence assay

IC50 [1]: 6.6 µM
IC50 [2]: 21.9 µM
IC50 [3]: 6.1 µM
SMILES: CC(C)c1ccccc1Cc1cc(C(=O)Nc2ccc(S(=O)(=O)c3ccccc3C(C)(C)C)cc2)c(O)c(O)c1O

IC50 [4]: 146 µM
IC50 [5]: 261 µM
SMILES: c1cncc(-c2c[nH]nn2)c1

IC50 [2]: > 200 µM
IC50 [3]: > 200 µM
SMILES: NC(=O)C1CCCc2c1[nH]c1ccc(Cl)cc21 (centres undefined)

IC50 [6]: 2.2 µM
IC50 [7]: 23.3 µM
SMILES: Cc1ccc(C(=O)Nc2ccc(S(=O)(=O)O)c3cc(S(=O)(=O)O)cc(S(=O)(=O)O)c23)cc1NC(=O)c1cccc(NC(=O)Nc2cccc(C(=O)Nc3cc(C(=O)Nc4ccc(S(=O)(=O)O)c5cc(S(=O)(=O)O)cc(S(=O)(=O)O)c45)ccc3C)c2)c1 [SURAMIN]
